Assays:
[1] = test system: barnyardgrass; assay: Test B flood; type: in vivo, Echinochloa crus-galli; conditions: 250 g ai/ha, visual rating on 0 to 100 scale (0 no effect, 100 complete control), 13 to 15 days
In short: (§1)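 Greenhouse assay lasting 13 to 15 days. Treatment was into water flooding pots 3 cm deep, at the 2-leaf stage, with that level sustained afterwards. Scores compare treated with control plants visually, 100 denoting complete control and 0 no effect; a dash marks no test result.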

[2] = test system: foxtail, giant; assay: Test A preemergence; type: in vivo, Setaria faberii; conditions: preemergence; for Foxtail, Giant plant response rating (0 to 100 scale): 125 g ai/ha, visual injury approx. 10 days after treatment; for Foxtail, Giant plant response rating: 500 g ai/ha, visual injury after approx. 10 days, 0 to 100 scale (0 no effect, 100 complete control)
In short: (§2)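 Scoring was visual, on a scale where 100 means complete control and 0 means no effect, comparing treated with untreated plants around 10 days post-application. Compounds in surfactant-containing non-phytotoxic solvent were sprayed onto soil preemergence or onto one- to two-leaf seedlings (2–10 cm) postemergence.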

[3] = test system: crabgrass, large; assay: Test A postemergence; type: in vivo, Digitaria sanguinalis
In short: as §2

[4] = test system: morningglory; assay: Test A preemergence; type: in vivo, Ipomoea spp.; conditions: preemergence; for Morningglory plant response rating (0 to 100 scale): 125 g ai/ha, visual injury approx. 10 days after treatment
In short: as §2

[5] = test system: pigweed; assay: Test A preemergence; type: in vivo, Amaranthus retroflexus; conditions: preemergence; for Pigweed plant response rating (0 to 100 scale): 125 g ai/ha, visual injury approx. 10 days after treatment
In short: as §2

[6] = test system: morningglory; assay: Test A postemergence; type: in vivo, Ipomoea spp.; conditions: Postemergence
In short: as §2

[7] = test system: foxtail, giant; assay: Test A postemergence; type: in vivo, Setaria faberii
In short: as §2

[8] = test system: velvetleaf; assay: Test A postemergence; type: in vivo, Abutilon theophrasti; conditions: Postemergence
In short: as §2

[9] = test system: ducksalad; assay: Test B flood; type: in vivo, Heteranthera limosa; conditions: 250 g ai/ha, visual rating on 0 to 100 scale (0 no effect, 100 complete control), 13 to 15 days
In short: as §1

[10] = test system: barnyardgrass; assay: Test A postemergence; type: in vivo, Echinochloa crus-galli
In short: as §2

[11] = test system: wheat; assay: Test A preemergence; type: in vivo, Triticum aestivum; conditions: preemergence; for Wheat plant response rating (0 to 100 scale): 125 g ai/ha, visual injury approx. 10 days after treatment
In short: as §2

[12] = test system: wheat; assay: Test A postemergence; type: in vivo, Triticum aestivum; conditions: Postemergence
In short: as §2

[13] = test system: pigweed; assay: Test A postemergence; type: in vivo, Amaranthus retroflexus; conditions: Postemergence
In short: as §2

[14] = test system: crabgrass, large; assay: Test A preemergence; type: in vivo, Digitaria sanguinalis; conditions: preemergence; for Crabgrass, Large plant response rating (0 to 100 scale): 125 g ai/ha, visual injury approx. 10 days after treatment; for Crabgrass, Large plant response rating: 500 g ai/ha, visual injury after approx. 10 days, 0 to 100 scale (0 no effect, 100 complete control)
In short: as §2

[15] = test system: corn; assay: Test A preemergence; type: in vivo, Zea mays; conditions: preemergence; for Corn plant response rating (0 to 100 scale): 125 g ai/ha, visual injury approx. 10 days after treatment; for Corn plant response rating: 500 g ai/ha, visual injury after approx. 10 days, 0 to 100 scale (0 no effect, 100 complete control)
In short: as §2

[16] = test system: sedge, umbrella; assay: Test B flood; type: in vivo, Cyperus difformis; conditions: 250 g ai/ha, visual rating on 0 to 100 scale (0 no effect, 100 complete control), 13 to 15 days
In short: as §1

[17] = test system: barnyardgrass; assay: Test A preemergence; type: in vivo, Echinochloa crus-galli; conditions: preemergence; for Barnyardgrass plant response rating (0 to 100 scale, 0 is no effect, 100 is complete control): 125 g ai/ha, visual injury approx. 10 days after treatment; for Barnyardgrass plant response rating: 500 g ai/ha, visual injury after approx. 10 days, 0 to 100 scale (0 no effect, 100 complete control)
In short: as §2

[18] = test system: velvetleaf; assay: Test A preemergence; type: in vivo, Abutilon theophrasti; conditions: preemergence; for Velvetleaf plant response rating (0 to 100 scale): 125 g ai/ha, visual injury approx. 10 days after treatment
In short: as §2

[19] = test system: corn; assay: Test A postemergence; type: in vivo, Zea mays
In short: as §2

[20] = test system: rice; assay: Test B flood; type: in vivo, Oryza sativa; conditions: 250 g ai/ha, visual rating on 0 to 100 scale (0 no effect, 100 complete control), 13 to 15 days
In short: as §1

[21] = Postemergence, 125 g ai/ha, 0 to 100 scale, 0 no effect, 100 complete control
[22] = Postemergence, 500 g ai/ha, 0 to 100 scale (0 no effect, 100 complete control)
[23] = 125 g ai/ha, 0 to 100 scale, 0 no effect, 100 complete control
[24] = 500 g ai/ha, 0 to 100 scale (0 no effect, 100 complete control)
[25] = postemergence, 125 g ai/ha, about 10 days, visual rating on 0 to 100 scale (0 no effect, 100 complete control)
[26] = 500 g ai/ha, visual injury after approx. 10 days, 0 to 100 scale (0 no effect, 100 complete control)

Row | SMILES | Plant response rating, Barnyardgrass [1] | Foxtail, Giant plant response rating (0 to 100 scale) [2] | Foxtail, Giant plant response rating [2] | Crabgrass, Large plant response rating [3, 22] | Morningglory plant response rating (0 to 100 scale) [4] | Pigweed plant response rating (0 to 100 scale) [5] | Morningglory plant response rating [6, 23] | Morningglory plant response rating [6, 24] | Foxtail, Giant plant response rating [7, 22] | Velvetleaf plant response rating [8, 23] | Velvetleaf plant response rating [8, 24] | Plant response rating, Ducksalad [9] | Barnyardgrass plant response rating [10, 22] | Wheat plant response rating (0 to 100 scale) [11] | Wheat plant response rating [12, 23] | Wheat plant response rating [12, 24] | Pigweed plant response rating [13, 23] | Pigweed plant response rating [13, 24] | Crabgrass, Large plant response rating (0 to 100 scale) [14] | Crabgrass, Large plant response rating [14] | further results
1 | CCc1cc(C(=O)NCC(F)(F)F)nn1Oc1cccc(OC(F)(F)F)c1 [Compound 221] | 0 | 0 | 40 | 30 | 0 | 0 | 30 | 80 | 30 | 0 | 20 | 0 | 10 | 0 | 0 | 10 | 20 | 60 | 10 | 90 | Crabgrass, Large plant response rating [3, 21]: 10; Foxtail, Giant plant response rating [7, 21]: 10; Barnyardgrass plant response rating [10, 21]: 10; Corn plant response rating (0 to 100 scale) [15]: 0; Corn plant response rating [15]: 0; Plant response rating, Sedge, Umbrella [16]: 0; Barnyardgrass plant response rating (0 to 100 scale, 0 is no effect, 100 is complete control) [17]: 0; Barnyardgrass plant response rating [17]: 10; Velvetleaf plant response rating (0 to 100 scale) [18]: 0; Corn plant response rating [19, 21]: 10; Corn plant response rating [19, 22]: 20; Plant response rating, Rice [20]: 0
2 | CCCCc1cc(C(=O)NCCC)nn1Cc1ccnc(C(F)(F)F)c1 [Compound 190] | 0 | 20 | 90 | 70 | 0 | 100 | 100 | 90 | 60 | 100 | 80 | 0 | 60 | 0 | 80 | 10 | 100 | 90 | 80 | 100 | Crabgrass, Large plant response rating [3, 25]: 20; Morningglory plant response rating [4, 26]: 30; Pigweed plant response rating [5, 26]: 100; Foxtail, Giant plant response rating [7, 25]: 20; Barnyardgrass plant response rating [10, 25]: 10; Wheat plant response rating [11, 26]: 0; Corn plant response rating (0 to 100 scale) [15]: 0; Corn plant response rating [15]: 0; Plant response rating, Sedge, Umbrella [16]: 45; Barnyardgrass plant response rating (0 to 100 scale, 0 is no effect, 100 is complete control) [17]: 0; Barnyardgrass plant response rating [17]: 60; Velvetleaf plant response rating (0 to 100 scale) [18]: 0; Velvetleaf plant response rating [18, 26]: 20; Corn plant response rating [19, 22]: 40; Corn plant response rating [19, 25]: 10; Plant response rating, Rice [20]: 0
3 | CCNC(=O)c1cc(CC)n(Oc2cccc(OC(F)(F)F)c2)n1 [Compound 223] | 0 | 0 | 20 | 70 | 0 | 0 | 0 | 30 | 30 | 0 | 30 | 25 | 50 | 0 | 0 | 10 | 20 | 60 | 20 | 90 | Crabgrass, Large plant response rating [3, 21]: 20; Foxtail, Giant plant response rating [7, 21]: 0; Barnyardgrass plant response rating [10, 21]: 0; Corn plant response rating (0 to 100 scale) [15]: 0; Corn plant response rating [15]: 0; Plant response rating, Sedge, Umbrella [16]: 65; Barnyardgrass plant response rating (0 to 100 scale, 0 is no effect, 100 is complete control) [17]: 0; Barnyardgrass plant response rating [17]: 40; Velvetleaf plant response rating (0 to 100 scale) [18]: 0; Corn plant response rating [19, 21]: 0; Corn plant response rating [19, 22]: 30; Plant response rating, Rice [20]: 25

Reference: patent US20150105252A1, “SUBSTITUTED PYRAZOLES AS HERBICIDES” (E I DU PONT DE NEMOURS AND COMPANY, priority 2013, published 2015)
